Here are results for two compounds from paper PMC7360862, “Sub-Acute Treatment of Curcumin Derivative J147 Ameliorates Depression-Like Behavior Through 5-HT1A-Mediated cAMP Signaling” (Frontiers in Neuroscience, 2020).

In assay [1] the target is T1, 5-HT1B receptor (Mus musculus, UniProt P28334).
T1 construct: gene Htr1b; native receptor in mouse frontal cortex membranes
Description: competitive radioligand binding, mouse frontal cortex membranes, reference antagonist measured in the same laboratory.

Assay [2] deals with T1, 5-HT1B receptor. Description: competitive radioligand binding, mouse frontal cortex membranes.
The target of a further assay is T2, 5-HT1A receptor (Mus musculus, UniProt Q64264).
T2 construct: gene Htr1a; native receptor in mouse frontal cortex membranes
T2 sequence (Q64264 1-421): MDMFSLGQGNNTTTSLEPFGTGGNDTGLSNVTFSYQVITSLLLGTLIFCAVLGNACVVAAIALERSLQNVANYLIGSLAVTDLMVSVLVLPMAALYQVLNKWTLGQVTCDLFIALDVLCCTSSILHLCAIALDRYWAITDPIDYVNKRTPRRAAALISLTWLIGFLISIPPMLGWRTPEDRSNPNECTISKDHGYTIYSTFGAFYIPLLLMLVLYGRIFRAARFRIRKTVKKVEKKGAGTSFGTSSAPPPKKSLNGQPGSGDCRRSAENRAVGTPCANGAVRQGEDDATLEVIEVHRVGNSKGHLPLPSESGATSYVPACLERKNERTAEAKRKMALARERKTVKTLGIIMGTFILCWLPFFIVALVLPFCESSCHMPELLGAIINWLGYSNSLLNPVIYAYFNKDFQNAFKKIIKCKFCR
Description: competitive radioligand binding ([3H]-8-OH-DPAT displacement), mouse frontal cortex membranes.

T1 sequence (P28334 whole entry): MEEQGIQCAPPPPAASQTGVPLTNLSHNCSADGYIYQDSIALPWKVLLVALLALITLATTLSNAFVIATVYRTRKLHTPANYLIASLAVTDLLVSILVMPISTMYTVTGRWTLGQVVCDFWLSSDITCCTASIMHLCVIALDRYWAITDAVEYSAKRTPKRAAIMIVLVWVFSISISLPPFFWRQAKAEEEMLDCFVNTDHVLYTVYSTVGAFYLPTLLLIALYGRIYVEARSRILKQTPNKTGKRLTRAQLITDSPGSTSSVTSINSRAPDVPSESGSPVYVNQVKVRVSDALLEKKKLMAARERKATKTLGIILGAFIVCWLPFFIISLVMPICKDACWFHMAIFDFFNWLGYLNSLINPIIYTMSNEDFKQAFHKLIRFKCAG

By Ki is commonly meant a dissociation constant, usually derived from enzyme kinetics or from competition with a known ligand. Higher therefore signals weaker binding. Turning to `COc1ccc(NC(=O)c2ccc(-c3ccc(-c4noc(C)n4)cc3C)cc2)cc1N1CCN(C)CC1` [GR-127935], the affinity on 5-HT1B receptor [1], expressed as Ki, was 1.29 nM. This lies in the single-digit nanomolar range.
As for `COc1cccc(/C=N/N(C(=O)C(F)(F)F)c2ccc(C)cc2C)c1` [J147], the values for the Ki on 5-HT1B receptor [2] and at 5-HT1A receptor were 612 nM and 0.42 nM, respectively.
